Our source for the Solubility in cyclopentanone values is patent publication US20180265707A1, “DICHROIC DYE COMPOUND, DICHROIC DYE COMPOSITION, LIGHT-ABSORBING ANISOTROPIC FILM, POLARIZING ELEMENT, AND IMAGE DISPLAY DEVICE” (FUJIFILM Corporation, priority 2015, published 2018).

SMILES strings stand for the structures.

The nature of the data set: Solubility in cyclopentanone. Format: physicochemical. The conditions noted are these: solvent cyclopentanone. How it is done:
For Compounds (1) to (8) thus synthesized, solubility in cyclopentanone was measured.
As to `CCN(CC)c1ccc(/N=N/c2nc3sc(/N=N/c4ccc(CCC(=O)OCCC(C)CCCC(C)C)cc4)cc3s2)cc1` (centres unmarked) [Compound (2)], the Solubility in cyclopentanone worked out at 4.5% by mass.

`CCCCOC(=O)CCC(=O)OCCc1ccc(/N=N/c2cc3sc(/N=N/c4ccc(N(CC)CC)cc4)nc3s2)cc1` [Compound (1)] registered a Solubility in cyclopentanone of 1.6% by mass.

`CCCCCCCCCCCCc1ccc(/N=N/c2cc3sc(/N=N/c4ccc(N(CC)CC)cc4)nc3s2)cc1` [Compound (6), reference compound] registered a Solubility in cyclopentanone of 0.59% by mass.

`CCCCCCCCCC(=O)OCCc1ccc(/N=N/c2cc3sc(/N=N/c4ccc(N(CC)CC)cc4)nc3s2)cc1` [Compound (8), reference compound] showed a Solubility in cyclopentanone of 0.50% by mass.

As for `CCCOC(=O)c1ccc(/N=N/c2cc3sc(/N=N/c4ccc(N(CC)CC)cc4)nc3s2)cc1` [Compound (7), reference compound], the Solubility in cyclopentanone is 0.19% by mass.

On to `CCCCCC(=O)OCCCCOC(=O)c1ccc(/N=N/c2cc3sc(/N=N/c4ccc(N(CC)CC)cc4)nc3s2)cc1` [Compound (5)], for which the Solubility in cyclopentanone came out at 1.2% by mass.

In the case of `CCN(CC)c1ccc(/N=N/c2nc3sc(/N=N/c4ccc(CCOC(=O)CCC(=O)OCCC(C)CCCC(C)C)cc4)cc3s2)cc1` (centres unmarked) [Compound (4)], the Solubility in cyclopentanone turned out to be 5.4% by mass.

Consider `CCCCC(CC)C(=O)OCCc1ccc(/N=N/c2cc3sc(/N=N/c4ccc(N(CC)CC)cc4)nc3s2)cc1` (centres unmarked) [Compound (3)], for which the Solubility in cyclopentanone turned out to be 6.0% by mass.
